Measured values as given in US11292783B2, “Substituted 1,2,3,4-tetrahydroisoquinolines as kappa opioid antagonists” (Research Triangle Institute, priority 2016, dated 2022).
Read-outs that look alike come from different tables or passages of the source.

Key:
Assay type in all cases: biochemical
δ opioid receptor = target: T1, δ opioid receptor (Homo sapiens, UniProt P41143); experiment: Inhibition of DPDPE-stimulated [35S]GTPγS binding
T1 construct: expressed in transfected cells

μ opioid receptor = target: T2, μ opioid receptor (Homo sapiens, UniProt P35372); experiment: Inhibition of DAMGO-stimulated [35S]GTPγS binding
T2 construct: expressed in transfected cells

κ opioid receptor = target: T3, κ opioid receptor (Homo sapiens, UniProt P41145); experiment: Inhibition of U69,593-stimulated [35S]GTPγS binding; conditions: for δ/κ (selectivity for κ relative to δ): ratio of Ke values δ/κ; for δ/κ (selectivity for κ relative to δ) / μ/κ (selectivity for κ relative to μ): fold; for μ/κ (selectivity for κ relative to μ): ratio of Ke values μ/κ
T3 construct: expressed in transfected cells

[1] = cloned human κ receptor, agonist U69,593, [35S]GTPγS binding, read-out: κ, U69,593 Ke
[2] = cloned human δ receptor, agonist DPDPE, [35S]GTPγS binding, read-out: δ, DPDPE Ke
[3] = cloned human μ receptor, agonist DAMGO, [35S]GTPγS binding, read-out: μ, DAMGO Ke

T2 sequence (P35372 whole entry): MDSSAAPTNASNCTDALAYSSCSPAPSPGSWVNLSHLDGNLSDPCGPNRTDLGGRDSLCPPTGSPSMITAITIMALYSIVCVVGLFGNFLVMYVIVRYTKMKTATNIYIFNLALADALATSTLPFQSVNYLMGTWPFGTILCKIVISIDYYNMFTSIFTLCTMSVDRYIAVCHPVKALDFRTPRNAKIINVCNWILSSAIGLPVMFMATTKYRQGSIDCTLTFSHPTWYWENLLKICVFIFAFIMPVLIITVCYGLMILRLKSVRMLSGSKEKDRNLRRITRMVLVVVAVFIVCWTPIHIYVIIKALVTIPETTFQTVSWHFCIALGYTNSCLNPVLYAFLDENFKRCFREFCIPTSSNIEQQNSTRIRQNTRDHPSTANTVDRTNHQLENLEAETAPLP
T1 sequence (P41143 whole entry): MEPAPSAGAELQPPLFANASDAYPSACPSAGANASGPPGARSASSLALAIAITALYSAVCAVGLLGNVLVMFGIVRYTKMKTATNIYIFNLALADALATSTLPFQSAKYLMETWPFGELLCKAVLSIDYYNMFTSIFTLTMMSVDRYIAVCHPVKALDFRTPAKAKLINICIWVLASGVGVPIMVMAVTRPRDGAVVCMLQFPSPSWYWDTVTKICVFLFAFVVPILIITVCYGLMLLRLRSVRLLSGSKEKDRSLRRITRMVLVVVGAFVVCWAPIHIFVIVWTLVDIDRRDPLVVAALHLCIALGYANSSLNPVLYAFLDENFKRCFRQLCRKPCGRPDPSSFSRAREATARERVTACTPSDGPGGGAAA
T3 sequence (P41145 whole entry): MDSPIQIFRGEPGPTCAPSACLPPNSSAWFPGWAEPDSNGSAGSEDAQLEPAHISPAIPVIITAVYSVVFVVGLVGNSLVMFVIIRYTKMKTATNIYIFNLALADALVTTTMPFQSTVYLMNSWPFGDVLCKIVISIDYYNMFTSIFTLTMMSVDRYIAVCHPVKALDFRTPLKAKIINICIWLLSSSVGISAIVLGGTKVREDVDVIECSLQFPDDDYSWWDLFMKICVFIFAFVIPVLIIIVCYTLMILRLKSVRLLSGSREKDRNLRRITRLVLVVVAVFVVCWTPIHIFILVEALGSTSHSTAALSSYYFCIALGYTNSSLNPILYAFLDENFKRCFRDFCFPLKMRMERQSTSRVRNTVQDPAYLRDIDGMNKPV

`CC(C)[C@@H](CN1CCCCC1)NC(=O)[C@H]1Cc2ccc(O)cc2CN1` [Compound 3, (3R)-7-Hydroxy-N-[(1S)-2-methyl-1-(piperidin-1-ylmethyl)propyl]-1,2,3,4-tetrahydroisoquinoline-3-carboxamide] showed a Kb (δ opioid receptor) greater than 3 µM.
With `CC(C)[C@@H](CO)NC(=O)[C@H]1Cc2ccc(O)cc2CN1` [Compound 4, (3R)-7-Hydroxy-N-[(1S)-1-(hydroxymethyl)-2-methylpropyl]-1,2,3,4-tetrahydroisoquinoline-3-carboxamide] the Kb (δ opioid receptor) was greater than 3 µM, the Kb (μ opioid receptor) was greater than 3 µM and the “δ/κ (selectivity for κ relative to δ)” value (κ opioid receptor) was greater than 76. The “μ/κ (selectivity for κ relative to μ)” value (κ opioid receptor) was greater than 76 and the Kb (κ opioid receptor; κ, U69,593 Ke, cloned human κ receptor, agonist U69,593, [35S]GTPγS binding) was 0.0391 ± 0.0038 µM.
`CC(C)[C@@H](CN1CCOCC1)NC(=O)[C@H]1Cc2ccc(O)cc2CN1` [Compound 5, (3R)-7-Hydroxy-N-[(1S)-2-methyl-1-(morpholin-4-ylmethyl)propyl]-1,2,3,4-tetrahydroisoquinoline-3-carboxamide] showed a Kb (κ opioid receptor; [1]) of 0.396 ± 0.14 µM.
With `CC(C)[C@@H](CN1CCC(C)(C)CC1)NC(=O)[C@H]1Cc2ccc(O)cc2CN1` [Compound 9, (3R)—N-{(1S)-1-[(4,4-Dimethylpiperidin-1-yl)methyl]-2-methylpropyl}-7-hydroxy-1,2,3,4-tetrahydroisoquinoline-3-carboxamide] the Kb (δ opioid receptor; [2]) was 0.847 µM, the Kb (μ opioid receptor; [3]) was 0.142 µM and the Kb (κ opioid receptor; [1]) was 0.00209 ± 0.00042 µM. The “δ/κ (selectivity for κ relative to δ)” value (κ opioid receptor) was 405 and the “μ/κ (selectivity for κ relative to μ)” value (κ opioid receptor) was 68.
Work on `CC(C)CN(CC(C)C)C[C@@H](NC(=O)[C@H]1Cc2ccc(O)cc2CN1)C(C)C` [Compound 10, (3R)—N-{(1S)-1-{[Bis(2-methylpropyl)amino]methyl}-2-methylpropyl]-7-hydroxy-1,2,3,4-tetrahydroisoquinoline-3-carboxamide] yielded a Kb (κ opioid receptor; [1]) of 0.137 ± 0.024 µM.
`CCN(CC)C[C@@H](NC(=O)[C@H]1Cc2ccc(O)cc2CN1)C(C)C` [Compound 11, (3R)—N-{(1S)-1-[(4,4-Diethylamino)methyl]-2-methylpropyl]-7-hydroxy-1,2,3,4-tetrahydroisoquinoline-3-carboxamide] was tested, and the Kb (δ opioid receptor; [2]) was greater than 3 µM, the “μ, DAMGO Ke” value (μ opioid receptor; cloned human μ receptor, agonist DAMGO, [35S]GTPγS binding) was 690 ± 110 nM and the “κ, U69,593 Ke” value (κ opioid receptor; cloned human κ receptor, agonist U69,593, [35S]GTPγS binding) was 41.8 ± 12 nM. For the same molecule, the “δ/κ (selectivity for κ relative to δ)” value (κ opioid receptor) was greater than 72 and the “μ/κ (selectivity for κ relative to μ)” value (κ opioid receptor) was 16.5.
In the case of `CC(C)[C@@H](CN1CCCCC1C)NC(=O)[C@H]1Cc2ccc(O)cc2CN1` (stereo partly drawn) [Compound 12, (3R)-7-Hydroxy-N-{(1S)-2-methyl-1-[(2-methylpiperidin-1-yl)methyl]propyl}-1,2,3,4-tetrahydroisoquinoline-3-carboxamide], the Kb (μ opioid receptor; [3]) is reported as 0.0449 ± 0.011 µM, the Kb (κ opioid receptor; [1]) is reported as 0.0151 ± 0.0042 µM and the “δ/κ (selectivity for κ relative to δ)” value (κ opioid receptor) is reported as 199. For the same molecule, the “μ/κ (selectivity for κ relative to μ)” value (κ opioid receptor) was 3.
`COC1CCN(C[C@@H](NC(=O)[C@H]2Cc3ccc(O)cc3CN2)C(C)C)CC1` [Compound 13, (3R)-7-Hydroxy-N-{(1S)-2-methyl-1-[(4-methoxypiperidin-1-yl)methyl]propyl}-1,2,3,4-tetrahydroisoquinoline-3-carboxamide] was tested, and the Kb (μ opioid receptor; [3]) was 0.198 ± 0.048 µM, the Kb (κ opioid receptor; [1]) was 0.00653 ± 0.0018 µM and the “δ/κ (selectivity for κ relative to δ)” value (κ opioid receptor) was greater than 459. For the same molecule, the “μ/κ (selectivity for κ relative to μ)” value (κ opioid receptor) was 30.
For `CC(C)[C@@H](CN1CCC(C(F)(F)F)CC1)NC(=O)[C@H]1Cc2ccc(O)cc2CN1` [Compound 14, (3R)-7-Hydroxy-N-[(1S)-2-methyl-1-{[4-(trifluoromethyl)piperidin-1-yl]methyl}propyl]-1,2,3,4-tetrahydroisoquinoline-3-carboxamide], the Kb (μ opioid receptor; [3]) was 0.0679 ± 0.012 µM, the Kb (κ opioid receptor; [1]) was 0.00469 ± 0.00029 µM and the “δ/κ (selectivity for κ relative to δ)” value (κ opioid receptor) was greater than 640. The “μ/κ (selectivity for κ relative to μ)” value (κ opioid receptor) was 14.
In the case of `CC(C)[C@@H](CN1CCN(C)CC1)NC(=O)[C@H]1Cc2ccc(O)cc2CN1` [Compound 19, (3R)-7-Hydroxy-N-{(1S)-2-methyl-1-[(4-methylpiperizin-1-yl)methyl]propyl}-1,2,3,4-tetrahydroisoquinoline-3-carboxamide], the Kb (μ opioid receptor; [3]) is reported as 0.915 ± 0.303 µM, the Kb (κ opioid receptor; [1]) is reported as 0.0988 ± 0.028 µM and the “δ/κ (selectivity for κ relative to δ)” value (κ opioid receptor) is reported as greater than 333. For the same molecule, the “μ/κ (selectivity for κ relative to μ)” value (κ opioid receptor) was 9.
With `CC(C)[C@@H](CN1CCC(C(N)=O)CC1)NC(=O)[C@H]1Cc2ccc(O)cc2CN1` [Compound 22] the Kb (μ opioid receptor; [3]) was 0.129 ± 0.026 µM, the Kb (κ opioid receptor; [1]) was 0.00322 ± 0.00078 µM and the “δ/κ (selectivity for κ relative to δ)” value (κ opioid receptor) was 932. The “μ/κ (selectivity for κ relative to μ)” value (κ opioid receptor) was 43.
`CCC1CCN(C[C@@H](NC(=O)[C@H]2Cc3ccc(O)cc3CN2)C(C)C)CC1` [Compound 24, (3R)—N-{(1S)-1-[(4-Ethylpiperidin-1-yl)methyl]-2-methylpropyl}-7-hydroxy-1,2,3,4-tetrahydroisoquinoline-3-carboxamide] showed a Kb (δ opioid receptor; [2]) of 2.49 ± 0.62 µM, a Kb (μ opioid receptor; [3]) of 0.0748 ± 0.023 µM and a Kb (κ opioid receptor; [1]) of 0.00248 ± 0.0007 µM. For the same molecule, the “δ/κ (selectivity for κ relative to δ)” value (κ opioid receptor) was 1004 and the “μ/κ (selectivity for κ relative to μ)” value (κ opioid receptor) was 30.
With `CC1CCN(C[C@H](C(C)C)N(C)C(=O)[C@H]2Cc3ccc(O)cc3CN2)CC1` [Compound 30, (3R)-7-Hydroxy-N-methyl-N-{(1S)-2-methyl-1-[(4-methylpiperidin-1-yl)methyl]propyl}-1,2,3,4-tetrahydroisoquinoline-3-carboxamide] the Kb (δ opioid receptor; [2]) was greater than 3 µM, the Kb (μ opioid receptor) was 0.406 ± 0.086 µM and the Kb (κ opioid receptor; [1]) was 0.0884 ± 0.017 µM. The “δ/κ (selectivity for κ relative to δ)” value (κ opioid receptor) was 34 and the “μ/κ (selectivity for κ relative to μ)” value (κ opioid receptor) was 4.6.
With `CC(C)[C@@H](CN1CCC(C#N)CC1)NC(=O)[C@H]1Cc2ccc(O)cc2CN1` [Compound 39, (3R)—N-{(1S)-1-[(4-Cyanopiperidin-1-yl)methyl]-2-methylprolyl}-7-hydroxy-1,2,3,4-tetrahydroisoquinoline-3-carboxamide] the Kb (μ opioid receptor; [3]) was 0.647 ± 0.15 µM, the Kb (κ opioid receptor; [1]) was 0.0127 ± 0.0031 µM and the “δ/κ (selectivity for κ relative to δ)” value (κ opioid receptor) was greater than 236. The “μ/κ (selectivity for κ relative to μ)” value (κ opioid receptor) was 51.
For `CC(C)[C@@H](CC1CCCC1)NC(=O)[C@H]1Cc2ccc(O)cc2CN1` [Compound 40, (3R)—N-[(1R)-1-(Cyclopentylmethyl)-2-methylpropyl]-7-hydroxy-1,2,3,4-tetrahydroisoquinoline-3-carboxamide], the Kb (δ opioid receptor; [2]) was 1.57 ± 0.38 µM and the Kb (μ opioid receptor; [3]) was 0.344 ± 0.1 µM.
`CC1CCN(C[C@H](C(C)C)N(C)C[C@H]2Cc3ccc(O)cc3CN2)CC1` [Compound 53, (3R)-3-[(Methyl{(1S)-2-methyl-1-[(4-methylpiperidin-1-yl)methyl]propyl}amino)methyl]-1,2,3,4-tetrahydroisoquinolin-7-ol] showed a Kb (δ opioid receptor; [2]) greater than 3 µM, a Kb (μ opioid receptor) of 0.647 ± 0.15 µM and a Kb (κ opioid receptor; [1]) of 0.0184 ± 0.002 µM. The “δ/κ (selectivity for κ relative to δ)” value (κ opioid receptor) was greater than 163 and the “μ/κ (selectivity for κ relative to μ)” value (κ opioid receptor) was 35.
In the case of `CC(C)[C@@H](CN1CCC(F)(F)CC1)NC(=O)[C@H]1Cc2ccc(O)cc2CN1` [Compound 54, (3R)—N-{[(1S)-1-[4,4-Difluoropiperidin-1-yl]methyl]-2-methylpropyl}-7-hydroxy-1,2,3,4-tetrahydroisoquinoline-3-carboxamide], the Kb (μ opioid receptor; [3]) is reported as 0.604 ± 0.083 µM, the Kb (κ opioid receptor; [1]) is reported as 0.0118 ± 0.003 µM and the “δ/κ (selectivity for κ relative to δ)” value (κ opioid receptor) is reported as greater than 254. For the same molecule, the “μ/κ (selectivity for κ relative to μ)” value (κ opioid receptor) was 51.
`O=C(NCCc1ccccc1)[C@H]1Cc2ccc(O)cc2CN1` [Compound 56, (3R)-7-Hydroxy-N-(2-phenylethyl)-1,2,3,4-tetrahydroisoquinoline-3-carboxamide] showed a Kb (δ opioid receptor; [2]) greater than 3 µM and a Kb (μ opioid receptor) of 0.277 ± 0.077 µM.
`CC(C)[C@@H](CN1CCC(N(C)C)CC1)NC(=O)[C@H]1Cc2ccc(O)cc2CN1` [Compound 58, (3R)—N-[(1S)-1-{[4-(Dimethylamino)piperidin-1-yl]methyl}-2-methylpropyl]-7-hydroxy-1,2,3,4-tetrahydroisoquinoline-3-carboxamide] was tested, and the Kb (μ opioid receptor; [3]) was 0.318 ± 0.0084 µM, the Kb (κ opioid receptor; [1]) was 0.00808 ± 0.0012 µM and the “δ/κ (selectivity for κ relative to δ)” value (κ opioid receptor) was greater than 371. For the same molecule, the “μ/κ (selectivity for κ relative to μ)” value (κ opioid receptor) was 39.
Work on `CC(C)[C@@H](CN1CCC(C(F)F)CC1)NC(=O)[C@H]1Cc2ccc(O)cc2CN1` [Compound 59, (3R)—N-[(1S)-1-{[4-(Difluoromethyl)piperidin-1-yl]methyl}-2-methylpropyl]-7-hydroxy-1,2,3,4-tetrahydroisoquinoline-3-carboxamide] yielded a Kb (μ opioid receptor; [3]) of 0.0709 ± 0.0094 µM and a Kb (κ opioid receptor; [1]) of 0.00345 ± 0.0012 µM.
`CC1CCC(C[C@@H](NC(=O)[C@H]2Cc3ccc(O)cc3CN2)C(C)C)CC1` (stereo partly drawn) [Compound 66, (3R)-7-Hydroxy-N-{(1R)-2-methyl-1-[(4-methylcyclohexyl)methyl]propyl}-1,2,3,4-tetrahydroisoquinoline-3-carboxamide] was tested, and the Kb (μ opioid receptor; [3]) was 0.221 ± 0.041 µM.
